The test system of one data set is mice. The data set is described as follows: Acute itch behaviour after injection (scratching bouts). It counts as in vivo, mouse. As to conditions: for itch responses in WT versus Cluster KO animals: injection at nape or cheek; for scratching / itch elicited by injection: WT mice; for itch elicited in Cluster KO animals: Cluster KO mice.
Data set [1] has as its target T1, MRGPRX4 (Homo sapiens, UniProt Q96LA9). The data set can be described thus: Fura 2-AM calcium imaging, EC50 determinations, MRGPRX4 HEK293 cells. It counts as cell-based. Further details: expressed in transfected cells; whole cells or crude membrane fraction. As to conditions: 10 μM pre-incubated 30 minutes; 50 μM bilirubin. Here is the method:
(§1) Cells were imaged in calcium imaging buffer (CIB; 10 mM HEPES, 1.2 mM NaHCO3, 130 mM NaCl, 3 mM KCl, 2.5 mM CaCl2, 0.6 mM MgCl2, 20 mM glucose, and 20 mM sucrose at pH 7.4 and 290-300 mOsm). To monitor changes in intracellular [Ca^2+] ([Ca^2+]i), cells were loaded with either Fura 2-AM (HEK293 cells) or Fluo 4-AM (DRG neurons and mast cells) for 30 min in the dark at 37° C. in CIB just prior to imaging. With Fura 2-AM, emission at 510 nm was monitored from excitation at both 340 nm and 380 nm. With Fluo 4-AM, emission at 520 nm was monitored from excitation at 488 nm. Cells were identified as responding if the intracellular [Ca^2+] rose by either 50% compared to baseline or 50% compared to the [Ca^2+]i change assayed during addition of 50 mM KCl (neurons only). Damaged, detached, high-baseline, and motion-activated cells were excluded from analysis.
(§2) In initial screens, HEK293 cells stably expressing the murine G-protein alpha-subunit Gα15, a unique Gα protein that non-selectively couples a large variety of GPCRs to phospholipase C^30, were plated on poly-D-lysine-coated coverslips and transiently transfected with constructs encoding the MRGRPR of interest. 12-24 h later, cells were loaded with the Fura 2-AM. Unless otherwise specified, compounds were perfused into the imaging chamber for approximately thirty seconds after a baseline period was established. Response was then monitored at 5 s intervals for an additional 60 s.
HEK293 cells stably expressing either MRGPRA1, MRGPRX4, and MRGRPC11 were seeded in poly-D-lysine-coated 96-well plates at 10,000 cells/well. Cells were loaded with Fura 2-AM, washed twice, and maintained in CIB. Haem metabolites were freshly dissolved in DMSO in dim light and then diluted into a buffer comprised of 20 mM Tris and 150 mM NaCl at pH 8.8. Potential changes in pH were evaluated prior to each experiment. EC50 values were determined from dose-responses performed in triplicate, repeated 2-4 times. […]

The next data set addresses T2, MrgprA1 (Mus musculus, UniProt Q91WW5).
T2 construct: expressed in transfected cells; whole cells or crude membrane fraction
T2 sequence (Q91WW5 1-304): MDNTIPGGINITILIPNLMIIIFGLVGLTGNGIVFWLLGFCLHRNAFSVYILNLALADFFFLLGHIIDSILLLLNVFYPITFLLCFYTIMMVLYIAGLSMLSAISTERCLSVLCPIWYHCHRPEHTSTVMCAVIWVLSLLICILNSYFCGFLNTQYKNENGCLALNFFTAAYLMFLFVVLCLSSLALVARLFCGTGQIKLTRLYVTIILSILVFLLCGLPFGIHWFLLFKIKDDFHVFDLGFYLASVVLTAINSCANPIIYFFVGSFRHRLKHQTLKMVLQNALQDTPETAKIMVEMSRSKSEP
The data set is described as follows: Fura 2-AM calcium imaging, EC50 and IC50 determinations, MRGPRA1 HEK293 cells. It counts as cell-based. As to conditions: 10 μM pre-incubated 30 minutes; 50 μM bilirubin. As for the experimental part:
as §1, §2
HEK293 cells stably expressing either MRGPRA1, MRGPRX4, and MRGRPC11 were seeded in poly-D-lysine-coated 96-well plates at 10,000 cells/well. Cells were loaded with Fura 2-AM, washed twice, and maintained in CIB. Haem metabolites were freshly dissolved in DMSO in dim light and then diluted into a buffer comprised of 20 mM Tris and 150 mM NaCl at pH 8.8. Potential changes in pH were evaluated prior to each experiment. EC50 values were determined from dose-responses performed in triplicate, repeated 2-4 times. To determine potential antagonism by QWF against bilirubin, cells were treated with varying doses of QWF for 1 min in CIB prior to application of agonist.

The test system of the next data set is 129S1/SvImJ mice. The data set is described as follows: SJS/TEN mouse model (daily oral gavage of causative drug). It counts as in vivo. As to conditions: mouse, in vivo. Here is the method:
Eight-to-ten week old male mice were orally gavaged with either causative drugs (LTG, allopurinol, oxcarbazepine) suspended in saline or saline once daily. The dosage was based on milligrams per kilogram of animal's body weight as indicated (for example, LTG 50 mg kg^−1 body weight). Skin, eyes, and mucosa, survival, body weight, physical and gross appearances (particularly on the eyes, mucosa and skins) were monitored every day.
The animals were deeply anesthetized with pentobarbital and transcardially perfused with 20 ml 0.1 M cold PBS (pH 7.4) followed with 25 ml of cold 4% paraformaldehyde (PFA). Paw skin, eyelid, spleen, lymph nodes were dissected out. postfixed in 4% PFA for more than two hours, and cryoprotected in a 20% followed by 30% sucrose solution for 24 hours each at 4° C. Tissue samples were embedded in the optimal cutting temperature (OCT) and frozen before being serially cut into 20 μm sections and placed onto slides. Hematoxylin and eosin (H&E) staining was performed using standard procedures according to the manufacturer's instruction VITROVIEW™ H&E Stain Kit). To quantify amount of apoptotic cells, terminal deoxynucleotidyl transferase dUTP nick end labeling (TUNEL) assay, a method for detecting DNA fragmentation that results from apoptotic cells by labeling the terminal end of nucleic acids, was performed by following the protocol of Apo-BrdU DNA Fragmentation Assay Kit (Biovision). To estimate the total cell number in tissue, all nuclei were stained with propidium iodide. Digital photographs were captured under confocal fluorescent microscopy at x200 magnification (Zeiss LSM 700). The number of TUNEL-positive nuclei were counted and reported as a percentage over the number of total nuclei observed in the skin's epidermis layer.

Data set [2] addresses T1, MRGPRX4. The data set can be described thus: MrgprX4 inverse agonist assay (HTRF IP-One inositol phosphate). The settings on record: HEK293 cells stably expressing recombinant human MrgprX4, final assay concentration typically 10 μM. Further details: expressed in transfected cells. It counts as cell-based. As for the experimental part:
(§3) Intracellular inositol phosphate levels were determined using a 384-well homogenous time-resolved fluorescence assay (HTRF IP-One®, CisBio International, Bagnols/Ceze, France, Cat #62IPAPEJ) as described by the manufacturer's one-step protocol. Briefly, HEK293 cells stably expressing recombinant human MrgprX4 were harvested and suspended in phenol-red free OptiMEM (ThermoFisher) and plated into 384-well assay plates (Perkin Elmer, Proxiplate-Plus® Cat #6008280) at 15,000 cells/well in a volume of 10 μL/well. These cell plates were then incubated overnight at 37° C. in a humidified CO2 incubator. Test compounds were dissolved in DMSO and were further diluted in Assay Buffer (Tris.HCl 40 mM, NaCl 300 mM, LiCl 350 mM, pH 8) and added to the cells (2 μL addition, final assay concentration typically 10 μM). In this configuration, the assay can detect agonists and inverse agonists. For detection of antagonists, test compound addition was followed by addition of bilirubin (2 μL addition, final assay concentration 100 μM). Regardless of the assay format (agonist/inverse agonist vs. antagonist) plates were then incubated for 1 h, at 37° C., followed by 30 minutes at room temperature. Lysis/detection reagents (6 uL/well) were then added and plates incubated for 1 h at room temperature before reading on an HTRF compatible reader such as a Perkin Elmer EnVision® or BMG Pherastar®.

The target in data set [3] is T1, MRGPRX4. The data set is described as follows: MrgprX4 antagonist assay vs bilirubin (HTRF IP-One inositol phosphate). Further details: expressed in transfected cells. It counts as cell-based. As to conditions: blockade of bilirubin (100 μM) induced signal; test compound typically 10 μM. Here is the method:
as §3
Background: Time-resolved FRET reads energy transfer from a long-lived donor to a nearby acceptor.

Entries after “also recorded” stand apart in the source; their conditions may differ. Starred links: 1 amine or outer side, 2 acyl side, 3 side chain; linkers in the order of their positions; H or OH if unused. Positions of bridges follow the written chain, without caps; N, C: chain ends. Non-standard residues stand in square brackets, D forms with d. Residues, ends and D or L forms follow the SMILES beside them. X1 = CC(=O)NC(C(=O)OC(C(C)C)C(N[*:1])C(=O)[*:2])C(O)C(C)C; PhLac = O=C(O)[CH](O)Cc1ccccc1; NMeT = CN[CH](C(=O)O)[CH](C)O; NMeA = CN[CH](C)C(=O)O; NMeDha = C=C(NC)C(=O)O

T1 sequence (Q96LA9 whole entry): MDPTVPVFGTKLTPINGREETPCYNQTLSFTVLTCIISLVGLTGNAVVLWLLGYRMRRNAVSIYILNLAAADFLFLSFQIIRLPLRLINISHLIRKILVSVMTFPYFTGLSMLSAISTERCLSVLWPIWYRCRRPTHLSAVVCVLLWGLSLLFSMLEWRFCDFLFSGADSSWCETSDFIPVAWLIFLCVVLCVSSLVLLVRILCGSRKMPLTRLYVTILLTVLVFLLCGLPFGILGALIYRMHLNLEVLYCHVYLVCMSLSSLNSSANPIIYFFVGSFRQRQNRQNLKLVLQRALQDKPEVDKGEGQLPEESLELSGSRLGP

For `C[C@@H](NC(=O)[C@@H](N)Cc1ccc(O)cc1)C(=O)NCC(=O)N(C)[C@@H](Cc1ccccc1)C(=O)NCCO` [DAMGO], the “itch responses in WT versus Cluster KO animals” value in the data set with mice is on record as “comparable itch responses”.

Regarding `C=C1C(=O)NC(C)C(=O)N(C)C(C)C(=O)NC(C(OC(=O)C(NC(C)=O)C(O)C(C)C)C(C)C)C(=O)N(C)C(C(C)OC)C(=O)OC(C)C(NC(C)=O)C(=O)OC(Cc2ccccc2)C(=O)N1C` (stereo not shown) [YM-254890] (Ac-T[PhLac][NMeDha]A[NMeA][X1][NMeT](Me); ester 1-C; configuration not given here), the “effect on bilirubin-induced calcium responses, MRGPRX4” value on MRGPRX4 [1] is on record as “inhibited”. Besides, the “effect on bilirubin-induced calcium responses, MRGPRA1” value at MrgprA1 was “abolished”.

For the molecule `Oc1ncnc2[nH]ncc12` [allopurinol], the eye manifestation entry with 129S1/SvImJ mice is recorded as “can also induce eye manifestation”.

`C=CC1=C(C)/C(=C/C2=NC(=C\c3[nH]c(/C=C4\NC(=O)C(C)=C4C=C)c(C)c3CCC(=O)O)/C(CCC(=O)O)=C2C)NC1=O` [biliverdin]: in the data set on mice, the “scratching / itch elicited by injection” value was “did not induce scratching”.

For the molecule `O=C(O)COCCN1CCN(C(c2ccccc2)c2ccc(Cl)cc2)CC1` (stereo not shown) [cetirizine], the “effect on bilirubin-induced scratching” value in the data set on mice (30 mg/kg, i.p., thirty minutes prior to bilirubin) was “failed to temper scratching behavior”.

Regarding `Cc1c(C(=O)NCc2ccccc2C(F)(F)F)ncn1Cc1ccc(Cl)cc1` [compound 1], the “Inverse Agonist Activity” value on MRGPRX4 [2] is “++++ (an activity of at least 3 standard deviations below baseline)”. The “Antagonist Activity” value on MRGPRX4 [3] is “++++ (a blockade of bilirubin induced signal of at least 85%)”.

On to `Cc1nc(-c2ccnn2Cc2ccc(Cl)cc2)[nH]c1-c1ccccc1` [compound 2], for which the “Inverse Agonist Activity” value on MRGPRX4 [2] is on record as “++++ (an activity of at least 3 standard deviations below baseline)”. Moreover, the “Antagonist Activity” value on MRGPRX4 [3] is “++++ (a blockade of bilirubin induced signal of at least 85%)”.

For `O=C(NCc1cc2ccccc2[nH]1)c1cc(-c2ccccn2)nc2ccc(Br)cc12` [compound 3], the “Inverse Agonist Activity” value on MRGPRX4 [2] was “+++ (an activity of from 2 standard deviations to less than 3 standard deviations below baseline)”. Also, the “Antagonist Activity” value on MRGPRX4 [3] is listed as “++++ (a blockade of bilirubin induced signal of at least 85%)”.

Consider `Nc1nc2ccccc2n1CCOc1ccccc1Cl` [compound 4], for which the “Inverse Agonist Activity” value at MRGPRX4 [2] was “+++ (an activity of from 2 standard deviations to less than 3 standard deviations below baseline)”. The “Antagonist Activity” value on MRGPRX4 [3] is given as “+++ (a blockade of bilirubin induced signal of from 70% to less than 85%)”.

As for `C=CC1=C(C)c2cc3[n-]c(cc4[n-]c(cc5nc(cc1n2)C(C)=C5C=C)c(C)c4CCC(=O)O)c(CCC(=O)O)c3C.O.[Fe+2]` [hematin], in the data set on mice, the “itch elicited in Cluster KO animals” value was “absent” and the “scratching / itch elicited by injection” value is “elicited itch”.

As for `CN1CC[C@]23c4c5ccc(O)c4O[C@H]2[C@@H](O)C=C[C@H]3[C@H]1C5` [morphine], in the data set with mice, the “itch responses in WT versus Cluster KO animals” value is recorded as “comparable itch responses”.

As for `CCC1=C(C)C(Cc2[nH]c(Cc3[nH]c(CC4NC(=O)C(C)=C4CC)c(C)c3CCC(=O)O)c(CCC(=O)O)c2C)NC1=O` (stereo not shown) [urobilinogen], the “scratching / itch elicited by injection” value with mice is listed as “able to stimulate scratching behavior”.

Consider FMRF: an MRGPRA1 agonist, for which the “scratching / itch elicited by injection” value in the data set on mice was “caused itch”.

As for lysophosphatidic acid [LPA], the “itch responses in WT versus Cluster KO animals” value in the data set on mice is reported as “comparable itch responses”.

For stercobilin, in the data set on mice, the “itch elicited in Cluster KO animals” value is “absent” and the “scratching / itch elicited by injection” value is “elicited itch; also recorded: able to stimulate scratching behavior”.

Values taken from patent US11442059B2, “Method for treating a chronic itch condition by administering small molecule MrgprX4 antagonists” (The Johns Hopkins University, priority 2017, dated 2022).
